From publication PMC4269296 (Nucleosides, nucleotides & nucleic acids, 2015)

Experiments:
X4 (IIIB) HIV-1 = experiment: Single-round; type: cell-based; details: Human immunodeficiency virus 1, IIIB, MAGI, read-out: Cell-Free Virus X4 EC50
R5 (BaL) HIV-1 = experiment: Single-round; type: cell-based; details: Human immunodeficiency virus 1, BAL, MAGI, read-out: Cell-Free Virus R5 EC50
[1] = tested on: Cell-Associated Virus (X4); experiment: Cell-associated transmission assay; type: cell-based, HIV-1; details: for EC50: Human immunodeficiency virus 1, read-out: Cell-Associated Virus CTC EC50; for Cell-Associated Virus CTC EC50: cell-associated transmission assay (X4)
[2] = tested on: X4 and R5 cell free virus; type: cell-based, HIV-1; details: for EC50: Human immunodeficiency virus 1, read-out: EC50 against X4 and R5 cell free virus
in vitro = details: human
[3] = tested on: HIV infected T4 lymphocytes; details: read-out: EC50 against HIV infected T4 lymphocytes; cited from earlier work

Structure (SMILES) | EC50 (X4 (IIIB) HIV-1) [µM] | EC50 (R5 (BaL) HIV-1) [nM] | EC50 [1] [µM] | EC50 [2] [nM] | EC50 at 2 h (in vitro) [µM] | EC50 [3] [µM] | Cell-Associated Virus CTC EC50 [1] [µM] | fold higher inhibition against X4 virus than the R5 virus strain ([2]; ratio of R5 and X4 EC50)
Nc1ccn([C@@H]2CS[C@H](CO)O2)c(=O)n1 [3TC (2), (−)-2′,3′-Dideoxy-3′-thiacytidine] | 7.5 | 2600 | 18.4 | 2600 to 7500 | > 100 | – | – | –
CCSCCCCCCCCCCCC(=O)O [12-Thioethyldodecanoic acid] | – | – | – | – | – | 9.4 | – | –
N=C(N)NCCC[C@H](NC(=O)[C@H](CCCNC(=N)N)NC(=O)[C@H](CCCNC(=N)N)NC(=O)[C@H](CCCNC(=N)N)NC(=O)[C@H](CCCNC(=N)N)NC(=O)[C@H](CCCNC(=N)N)NC(=O)[C@H](CCCNC(=N)N)NC(=O)CCCCCCCCCCCCC(=O)OC[C@@H]1O[C@H](n2ccc(N)nc2=O)CS1)C(=O)O [Compound 14, 1-[(−)-2′,3′-Dideoxy-3′-thiacytidine]tetradecan-1,14-dioate conjugate of PolyArg] | – | – | – | – | – | – | >30 | approximately 2 fold
N=C(N)NCCC[C@H](NC(=O)[C@H](CCCNC(=N)N)NC(=O)[C@H](CCCNC(=N)N)NC(=O)[C@H](CCCNC(=N)N)NC(=O)[C@H](CCCNC(=N)N)NC(=O)[C@H](CCCNC(=N)N)NC(=O)[C@H](CCCNC(=N)N)NC(=O)CCCCCCCCCCCCC(=O)OC[C@@H]1O[C@H](n2cc(F)c(N)nc2=O)CS1)C(=O)O [Compound 15, 1-[(−)-2′,3′-dideoxy-5-fluoro-3′-thiacytidine]tetradecan-1,14-dioate conjugate of PolyArg] | – | – | – | – | – | – | >30 | –
Cc1cn([C@H]2C[C@H](F)[C@@H](CO)O2)c(=O)[nH]c1=O [FLT (1), 3′-Fluoro-2′,3′-deoxythymidine] | 0.2 | 100 | > 100 | 100 to 200 | > 100 | – | – | –
Nc1nc(=O)n([C@@H]2CS[C@H](CO)O2)cc1F [FTC (3), (−) 2′,3′–Dideoxy-5-fluoro-3′-thiacytidine] | – | – | 21.9 | 180 to 480 | > 100 | – | – | –
